Reference: publication PMC2697320, “Identification of the high affinity binding site in the Streptococcus intermedius toxin intermedilysin for its membrane receptor, the human complement regulator CD59” (Molecular Immunology, 2009)
Where no end group is shown, it is not given here.

Tests used:
human erythrocytes = assay: Hemolytic assay for complement (C) activity, antibody-sensitised human erythrocytes; type: cell-based; settings: at the dilutions used in these assays
Protocol: Hemolytic assays for C activity were performed using human erythrocytes sensitised with an in-house rabbit polyclonal antiserum against human CD55 as described ([Cole et al., 2006]). Sensitised erythrocytes (2% in CFD; 50 μl/well) were incubated for 30 min with various dilutions of human serum in CFD in the absence or presence of test peptides or blocking anti-CD59 antibodies. Plates were centrifuged and percent lysis calculated as above. Statistical analyses were carried out using unpaired Student's t-tests.

CD59 = biological target: T1, CD59 (Homo sapiens, UniProt P13987); assay: biochemical; type: binding; settings: SPR steady state, immobilised CD59, 25 °C; read-out: KD, printed in Fig. 3C
T1 construct: Recombinant soluble CD59 comprising amino acids 1–76 with an 11 amino acid Ser/Gly linker; made in house
T1 sequence (P13987 26-101): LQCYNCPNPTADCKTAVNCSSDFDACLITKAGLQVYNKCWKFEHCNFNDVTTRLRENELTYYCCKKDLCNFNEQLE
Protocol: All surface plasmon resonance (SPR) analyses were carried out on a Biacore T100 (Biacore International SA, Stevenage, UK). Proteins were coupled to the sensor chip surface using thiol-based coupling chemistry. Briefly, recombinant CD59 was subjected to mild reduction for 16 h at 20 °C using TCEP at a molar ratio TCEP:CD59 of 3:1 [120 μm:40 μM] to reduce the terminal Cys residue while leaving internal disulphide bonds intact. An S-series CM5 carboxy-dextran coated chip was then activated using NHS/EDC (N-hydroxysuccinimide/1-ethyl-3(3-dimethyl aminopropyl)-carbodiimide hydrochloride) according to the manufacturer's protocol. The activated surface was further modified by flowing 80 mM 2-(2-pyridinyldithio)-ethaneamine hydrochloride (PDEA) in 0.1 M sodium borate (pH 8.5) to introduce reactive disulphide groups into the matrix. Reduced CD59 was flowed over this surface at pH 3.4 (10 mM NaCitrate) and coupling through the free amino-terminal thiol in the reduced CD59 monitored in real time. Blocking of residual activated residues was achieved by flowing 50 mM L-cysteine in 100 mM NaAcetate pH 4 containing 1 M NaCl. […] For all kinetic analyses, data were collected at 25 °C at a flow rate of 30 μl/min. […] Interactions were analysed in HBS containing 0.05% surfactant P20 and 3 mM EDTA. Data were evaluated using Biacore T100 Evaluation software.

Sequence: GLAWEPWRLIYSKNDLPLVPC [ILY peptide]
- lysis by peptide itself above background (human erythrocytes): neither “sense” nor jumbled peptide caused any lysis above background
- Kd (CD59): 4.92 µM
